Source: ChEMBL document CHEMBL3991601, “The target landscape of clinical kinase drugs” (Science, 2017)
Calls of active or inactive are those of the source. Rule as the data show it, for most assays here: actives have a measured Kd and inactives only a lower limit.

Legend:
[1] = target: cAMP-dependent protein kinase catalytic subunit alpha (Homo sapiens, UniProt P17612)
[2] = target: T1, Mitogen-activated protein kinase 15 (Homo sapiens, UniProt Q8TD08)
T1 sequence (Q8TD08 whole entry): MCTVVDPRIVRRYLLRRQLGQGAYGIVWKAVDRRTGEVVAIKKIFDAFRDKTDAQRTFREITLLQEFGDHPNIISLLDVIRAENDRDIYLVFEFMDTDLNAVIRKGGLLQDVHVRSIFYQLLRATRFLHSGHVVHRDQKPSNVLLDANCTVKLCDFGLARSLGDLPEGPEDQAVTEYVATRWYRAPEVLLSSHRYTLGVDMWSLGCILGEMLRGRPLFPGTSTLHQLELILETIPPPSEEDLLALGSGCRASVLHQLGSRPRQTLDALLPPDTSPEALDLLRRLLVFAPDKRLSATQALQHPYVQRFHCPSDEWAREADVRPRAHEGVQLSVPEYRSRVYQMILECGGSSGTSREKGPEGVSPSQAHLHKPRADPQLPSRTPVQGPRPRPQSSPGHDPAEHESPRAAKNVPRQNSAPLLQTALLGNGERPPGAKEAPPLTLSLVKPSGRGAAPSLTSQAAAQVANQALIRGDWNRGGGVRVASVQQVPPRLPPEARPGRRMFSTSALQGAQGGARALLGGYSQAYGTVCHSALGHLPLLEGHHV

[3] = target: Mitogen-activated protein kinase kinase kinase 20 (Homo sapiens, UniProt Q9NYL2)
[4] = target: Casein kinase II subunit alpha' (Homo sapiens, UniProt P19784)
Scaffold protein ILK = target: T2, Scaffold protein ILK (Homo sapiens, UniProt Q13418)
T2 sequence (Q13418 whole entry): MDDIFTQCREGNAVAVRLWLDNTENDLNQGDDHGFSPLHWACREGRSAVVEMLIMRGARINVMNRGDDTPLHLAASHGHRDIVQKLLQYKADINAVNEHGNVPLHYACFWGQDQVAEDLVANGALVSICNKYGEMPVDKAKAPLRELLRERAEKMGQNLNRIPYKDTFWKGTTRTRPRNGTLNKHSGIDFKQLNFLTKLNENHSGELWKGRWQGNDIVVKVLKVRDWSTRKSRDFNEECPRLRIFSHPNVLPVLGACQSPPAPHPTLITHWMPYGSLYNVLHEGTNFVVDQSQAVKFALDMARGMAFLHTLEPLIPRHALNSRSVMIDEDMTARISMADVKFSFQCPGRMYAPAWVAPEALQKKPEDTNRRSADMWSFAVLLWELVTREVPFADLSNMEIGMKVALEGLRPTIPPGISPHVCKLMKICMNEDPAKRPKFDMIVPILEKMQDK

[5] = target: Tyrosine-protein kinase BTK (Homo sapiens, UniProt Q06187)
[6] = target: Citron Rho-interacting kinase (Homo sapiens, UniProt O14578)
[7] = target: T3, Mitogen-activated protein kinase kinase kinase 2 (Homo sapiens, UniProt Q9Y2U5)
T3 sequence (Q9Y2U5 whole entry): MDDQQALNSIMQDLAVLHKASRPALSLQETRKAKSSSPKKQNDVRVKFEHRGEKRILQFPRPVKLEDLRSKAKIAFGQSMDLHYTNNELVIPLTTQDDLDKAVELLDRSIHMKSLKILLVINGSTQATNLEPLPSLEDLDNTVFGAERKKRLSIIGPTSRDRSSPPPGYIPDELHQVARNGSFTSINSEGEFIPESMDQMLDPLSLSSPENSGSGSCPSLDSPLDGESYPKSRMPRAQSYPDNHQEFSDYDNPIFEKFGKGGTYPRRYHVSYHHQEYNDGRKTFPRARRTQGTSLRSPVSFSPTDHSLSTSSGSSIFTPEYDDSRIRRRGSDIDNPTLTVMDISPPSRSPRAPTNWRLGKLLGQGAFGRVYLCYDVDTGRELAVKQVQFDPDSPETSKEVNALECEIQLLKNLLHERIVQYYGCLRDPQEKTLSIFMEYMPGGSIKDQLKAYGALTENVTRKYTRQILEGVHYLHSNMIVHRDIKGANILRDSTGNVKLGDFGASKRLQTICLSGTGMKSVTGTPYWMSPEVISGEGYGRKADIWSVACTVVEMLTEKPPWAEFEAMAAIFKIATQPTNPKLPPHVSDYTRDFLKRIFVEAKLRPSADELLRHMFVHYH

[8] = target: Serine/threonine-protein kinase N1 (Homo sapiens, UniProt Q16512)
[9] = target: Tyrosine-protein kinase CSK (Homo sapiens, UniProt P41240)
[10] = target: Bone morphogenetic protein receptor type-1B (Homo sapiens, UniProt O00238)
[11] = target: T4, Serine/threonine-protein kinase D3 (Homo sapiens, UniProt O94806)
T4 sequence (O94806 whole entry): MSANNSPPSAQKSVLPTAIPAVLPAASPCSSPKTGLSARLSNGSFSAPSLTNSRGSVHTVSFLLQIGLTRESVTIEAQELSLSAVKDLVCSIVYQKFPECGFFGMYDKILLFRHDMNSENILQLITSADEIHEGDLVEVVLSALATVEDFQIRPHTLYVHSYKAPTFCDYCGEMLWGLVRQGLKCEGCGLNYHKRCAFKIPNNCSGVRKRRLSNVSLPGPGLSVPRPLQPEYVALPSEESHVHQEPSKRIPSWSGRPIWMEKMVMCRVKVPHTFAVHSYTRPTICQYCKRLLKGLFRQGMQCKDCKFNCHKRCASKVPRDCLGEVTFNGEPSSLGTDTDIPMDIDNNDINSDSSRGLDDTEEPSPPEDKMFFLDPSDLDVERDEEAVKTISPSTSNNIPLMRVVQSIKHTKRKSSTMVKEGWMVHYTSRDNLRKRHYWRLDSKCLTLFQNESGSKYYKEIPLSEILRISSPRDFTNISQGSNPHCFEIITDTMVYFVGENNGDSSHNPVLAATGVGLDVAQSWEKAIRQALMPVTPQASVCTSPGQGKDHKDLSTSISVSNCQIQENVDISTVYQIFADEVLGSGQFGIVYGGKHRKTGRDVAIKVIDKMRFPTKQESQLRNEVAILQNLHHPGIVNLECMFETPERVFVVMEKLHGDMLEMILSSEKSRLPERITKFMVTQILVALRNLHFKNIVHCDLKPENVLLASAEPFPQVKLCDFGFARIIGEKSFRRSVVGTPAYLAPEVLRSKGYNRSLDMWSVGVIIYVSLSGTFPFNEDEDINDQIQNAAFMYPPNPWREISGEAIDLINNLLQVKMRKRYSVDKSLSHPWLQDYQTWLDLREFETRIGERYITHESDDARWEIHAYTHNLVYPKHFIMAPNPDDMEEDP
Also: in the data inactive means no Kd found up to 30 µM.

Tyrosine-protein kinase BTK, sequence (Q06187 whole entry): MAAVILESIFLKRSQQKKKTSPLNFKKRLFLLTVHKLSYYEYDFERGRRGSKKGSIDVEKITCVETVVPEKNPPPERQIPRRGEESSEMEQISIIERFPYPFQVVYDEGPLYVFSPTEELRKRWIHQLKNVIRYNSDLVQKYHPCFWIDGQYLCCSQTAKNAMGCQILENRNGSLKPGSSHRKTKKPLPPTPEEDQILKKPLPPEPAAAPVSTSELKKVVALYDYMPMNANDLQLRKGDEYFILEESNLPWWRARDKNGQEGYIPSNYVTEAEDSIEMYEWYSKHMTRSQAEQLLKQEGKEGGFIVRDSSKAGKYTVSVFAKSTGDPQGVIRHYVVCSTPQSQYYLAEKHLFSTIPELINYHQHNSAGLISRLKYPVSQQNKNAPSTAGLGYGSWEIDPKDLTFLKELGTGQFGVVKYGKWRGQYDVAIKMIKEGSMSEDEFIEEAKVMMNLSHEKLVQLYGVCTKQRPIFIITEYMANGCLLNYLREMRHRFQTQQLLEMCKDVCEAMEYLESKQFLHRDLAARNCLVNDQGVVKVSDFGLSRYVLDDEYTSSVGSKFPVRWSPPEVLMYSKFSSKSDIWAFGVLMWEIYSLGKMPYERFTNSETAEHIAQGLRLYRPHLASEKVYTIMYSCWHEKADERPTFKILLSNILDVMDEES
Serine/threonine-protein kinase N1, sequence (Q16512 whole entry): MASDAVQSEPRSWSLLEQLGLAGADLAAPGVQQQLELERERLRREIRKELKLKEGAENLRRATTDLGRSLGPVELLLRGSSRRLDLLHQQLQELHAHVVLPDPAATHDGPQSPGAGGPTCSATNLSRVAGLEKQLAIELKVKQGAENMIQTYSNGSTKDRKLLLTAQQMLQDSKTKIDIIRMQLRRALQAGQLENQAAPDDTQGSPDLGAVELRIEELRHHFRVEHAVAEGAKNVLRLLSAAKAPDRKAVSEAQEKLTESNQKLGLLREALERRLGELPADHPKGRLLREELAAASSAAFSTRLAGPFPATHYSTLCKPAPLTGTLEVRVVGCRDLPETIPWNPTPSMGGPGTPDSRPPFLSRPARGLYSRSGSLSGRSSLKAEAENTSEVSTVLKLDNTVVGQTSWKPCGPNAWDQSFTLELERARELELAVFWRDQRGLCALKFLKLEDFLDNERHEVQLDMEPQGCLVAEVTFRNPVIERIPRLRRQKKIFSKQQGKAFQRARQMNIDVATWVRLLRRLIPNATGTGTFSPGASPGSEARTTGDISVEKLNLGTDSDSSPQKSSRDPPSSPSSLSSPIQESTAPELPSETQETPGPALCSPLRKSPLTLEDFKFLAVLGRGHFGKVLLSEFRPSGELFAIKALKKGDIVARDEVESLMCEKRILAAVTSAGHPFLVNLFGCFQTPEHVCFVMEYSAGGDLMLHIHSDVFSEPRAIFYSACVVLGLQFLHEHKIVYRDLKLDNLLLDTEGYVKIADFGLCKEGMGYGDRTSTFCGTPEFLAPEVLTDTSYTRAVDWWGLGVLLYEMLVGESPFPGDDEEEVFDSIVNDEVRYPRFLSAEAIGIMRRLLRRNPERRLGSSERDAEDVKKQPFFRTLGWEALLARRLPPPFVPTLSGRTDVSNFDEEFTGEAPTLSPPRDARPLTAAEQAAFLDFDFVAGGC
Bone morphogenetic protein receptor type-1B, sequence (O00238 whole entry): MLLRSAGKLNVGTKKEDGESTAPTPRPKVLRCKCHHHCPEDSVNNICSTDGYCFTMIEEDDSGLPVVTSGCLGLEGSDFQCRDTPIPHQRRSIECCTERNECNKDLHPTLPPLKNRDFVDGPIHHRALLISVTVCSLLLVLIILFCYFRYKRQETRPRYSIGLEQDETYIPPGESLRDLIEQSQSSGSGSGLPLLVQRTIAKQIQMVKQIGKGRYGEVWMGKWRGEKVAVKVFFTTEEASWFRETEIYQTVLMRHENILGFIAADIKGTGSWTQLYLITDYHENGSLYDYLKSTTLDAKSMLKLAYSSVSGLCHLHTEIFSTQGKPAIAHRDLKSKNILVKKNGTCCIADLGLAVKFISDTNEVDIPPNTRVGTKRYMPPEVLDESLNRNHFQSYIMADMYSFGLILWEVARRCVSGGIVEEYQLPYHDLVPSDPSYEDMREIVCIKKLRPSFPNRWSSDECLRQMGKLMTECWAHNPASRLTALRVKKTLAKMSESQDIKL
Citron Rho-interacting kinase, sequence (O14578 whole entry): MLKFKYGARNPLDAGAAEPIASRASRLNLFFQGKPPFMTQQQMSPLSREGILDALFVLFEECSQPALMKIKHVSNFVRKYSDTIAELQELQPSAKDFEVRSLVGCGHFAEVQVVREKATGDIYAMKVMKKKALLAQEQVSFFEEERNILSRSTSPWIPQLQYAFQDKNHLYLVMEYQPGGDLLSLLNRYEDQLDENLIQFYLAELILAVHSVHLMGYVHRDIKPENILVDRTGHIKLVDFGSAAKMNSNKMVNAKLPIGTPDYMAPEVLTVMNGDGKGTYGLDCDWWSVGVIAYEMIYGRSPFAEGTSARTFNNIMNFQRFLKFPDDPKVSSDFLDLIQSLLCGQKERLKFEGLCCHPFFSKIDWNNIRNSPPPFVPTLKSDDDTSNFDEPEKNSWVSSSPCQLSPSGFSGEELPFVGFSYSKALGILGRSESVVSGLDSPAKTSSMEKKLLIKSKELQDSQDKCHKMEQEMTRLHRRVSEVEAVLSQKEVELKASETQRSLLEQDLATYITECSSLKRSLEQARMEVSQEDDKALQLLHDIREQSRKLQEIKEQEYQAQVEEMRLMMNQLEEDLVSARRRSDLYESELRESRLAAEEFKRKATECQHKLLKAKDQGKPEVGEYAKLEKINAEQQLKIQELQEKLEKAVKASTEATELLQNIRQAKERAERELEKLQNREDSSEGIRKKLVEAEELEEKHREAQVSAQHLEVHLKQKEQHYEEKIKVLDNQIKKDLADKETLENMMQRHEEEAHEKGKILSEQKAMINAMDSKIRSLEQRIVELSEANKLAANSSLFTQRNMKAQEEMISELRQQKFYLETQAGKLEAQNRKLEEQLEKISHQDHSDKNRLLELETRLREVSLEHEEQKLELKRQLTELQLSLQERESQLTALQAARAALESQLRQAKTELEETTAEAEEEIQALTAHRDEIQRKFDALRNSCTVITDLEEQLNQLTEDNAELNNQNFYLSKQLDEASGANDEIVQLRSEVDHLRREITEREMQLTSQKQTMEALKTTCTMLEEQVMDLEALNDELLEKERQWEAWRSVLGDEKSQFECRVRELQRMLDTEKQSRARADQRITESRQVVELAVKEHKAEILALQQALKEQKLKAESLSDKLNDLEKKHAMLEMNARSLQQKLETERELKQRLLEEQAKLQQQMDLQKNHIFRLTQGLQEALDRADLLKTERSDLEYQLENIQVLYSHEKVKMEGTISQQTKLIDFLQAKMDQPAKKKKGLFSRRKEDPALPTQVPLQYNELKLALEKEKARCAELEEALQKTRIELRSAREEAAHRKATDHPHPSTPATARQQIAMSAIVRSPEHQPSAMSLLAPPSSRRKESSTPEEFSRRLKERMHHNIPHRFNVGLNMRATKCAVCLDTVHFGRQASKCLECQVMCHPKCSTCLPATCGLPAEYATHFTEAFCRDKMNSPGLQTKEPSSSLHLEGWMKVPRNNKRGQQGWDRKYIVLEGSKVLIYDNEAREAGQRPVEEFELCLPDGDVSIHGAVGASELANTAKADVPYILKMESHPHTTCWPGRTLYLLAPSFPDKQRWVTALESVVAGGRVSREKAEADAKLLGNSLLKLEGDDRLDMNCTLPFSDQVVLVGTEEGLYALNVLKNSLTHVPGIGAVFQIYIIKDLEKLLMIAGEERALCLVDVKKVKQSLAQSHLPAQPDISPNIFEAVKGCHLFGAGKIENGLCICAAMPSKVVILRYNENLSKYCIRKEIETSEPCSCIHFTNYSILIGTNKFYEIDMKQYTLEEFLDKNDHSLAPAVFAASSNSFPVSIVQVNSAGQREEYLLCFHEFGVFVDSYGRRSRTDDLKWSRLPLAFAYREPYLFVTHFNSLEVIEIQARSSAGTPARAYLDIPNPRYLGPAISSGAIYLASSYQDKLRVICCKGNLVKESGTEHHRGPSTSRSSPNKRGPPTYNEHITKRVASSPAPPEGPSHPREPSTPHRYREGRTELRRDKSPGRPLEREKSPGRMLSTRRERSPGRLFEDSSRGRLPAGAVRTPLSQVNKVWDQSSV
Mitogen-activated protein kinase kinase kinase 20, sequence (Q9NYL2 whole entry): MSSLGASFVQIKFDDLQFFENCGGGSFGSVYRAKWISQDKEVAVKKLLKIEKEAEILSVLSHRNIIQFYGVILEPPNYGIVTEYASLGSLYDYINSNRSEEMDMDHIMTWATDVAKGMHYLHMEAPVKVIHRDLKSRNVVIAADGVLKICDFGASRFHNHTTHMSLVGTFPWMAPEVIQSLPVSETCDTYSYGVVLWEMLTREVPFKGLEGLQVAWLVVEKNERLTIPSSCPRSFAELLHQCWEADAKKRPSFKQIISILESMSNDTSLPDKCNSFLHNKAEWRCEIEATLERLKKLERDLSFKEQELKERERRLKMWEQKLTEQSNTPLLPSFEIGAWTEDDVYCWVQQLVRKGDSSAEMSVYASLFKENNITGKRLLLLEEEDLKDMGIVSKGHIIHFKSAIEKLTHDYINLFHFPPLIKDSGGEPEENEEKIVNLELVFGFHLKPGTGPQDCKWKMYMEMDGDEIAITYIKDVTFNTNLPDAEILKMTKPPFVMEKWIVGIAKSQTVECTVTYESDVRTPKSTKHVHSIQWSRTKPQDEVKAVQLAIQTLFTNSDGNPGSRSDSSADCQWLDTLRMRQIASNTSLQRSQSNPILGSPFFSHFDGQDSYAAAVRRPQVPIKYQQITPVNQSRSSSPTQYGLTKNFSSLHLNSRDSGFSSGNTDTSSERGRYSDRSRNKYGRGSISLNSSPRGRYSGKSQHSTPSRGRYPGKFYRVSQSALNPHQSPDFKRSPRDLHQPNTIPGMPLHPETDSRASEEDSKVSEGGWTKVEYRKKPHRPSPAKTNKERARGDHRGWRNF

Row | Compound | Kd [1] | Kd [3] | Kd [4] | Kd (Scaffold protein ILK) | Kd [5] | Kd [6] | Kd [7] | Kd [8] | Kd [9] | Kd [10] | Kd [11] | Kd [2]
1 | COCCNCc1ccc(-c2cc3nccc(Oc4ccc(NC(=S)NC(=O)Cc5ccc(F)cc5)cc4F)c3s2)nc1 [GLESATINIB] | > 30 µM (inactive) | > 30 µM (inactive) | > 30 µM (inactive) | > 30 µM (inactive) | > 30 µM (inactive) | > 30 µM (inactive) | > 30 µM (inactive) | > 30 µM (inactive) | > 30 µM (inactive) | > 30 µM (inactive) | > 30 µM (inactive) | > 30 µM (inactive)
2 | COc1ccc(-c2ccc3c(N4CCOC[C@@H]4C)nc(N4CCOC[C@@H]4C)nc3n2)cc1CO [AZD-8055] | > 30 µM (inactive) | > 30 µM (inactive) | > 30 µM (inactive) | > 30 µM (inactive) | > 30 µM (inactive) | > 30 µM (inactive) | > 30 µM (inactive) | > 30 µM (inactive) | > 30 µM (inactive) | > 30 µM (inactive) | > 30 µM (inactive) | > 30 µM (inactive)
3 | Cc1cc2c(F)c(Oc3ncnn4cc(OC[C@@H](C)OC(=O)[C@H](C)N)c(C)c34)ccc2[nH]1 [BRIVANIB ALANINATE] | > 30 µM (inactive) | > 30 µM (inactive) | > 30 µM (inactive) | > 30 µM (inactive) | > 30 µM (inactive) | > 30 µM (inactive) | > 30 µM (inactive) | > 30 µM (inactive) | > 30 µM (inactive) | > 30 µM (inactive) | > 30 µM (inactive) | > 30 µM (inactive)
4 | Cc1ccc(-n2nc(C(C)(C)C)cc2NC(=O)NCc2cc(F)ccc2Oc2ccc3c(cnn3CCO)c2)cc1 [PEXMETINIB] | > 30 µM (inactive) | 1.25 µM (active) | > 30 µM (inactive) | > 30 µM (inactive) | > 30 µM (inactive) | > 30 µM (inactive) | > 30 µM (inactive) | > 30 µM (inactive) | > 30 µM (inactive) | > 30 µM (inactive) | > 30 µM (inactive) | > 30 µM (inactive)

The next lines start with results.

Row | Kd [1] | Kd [3] | Kd [4] | Kd (Scaffold protein ILK) | Kd [5] | Kd [6] | Kd [7] | Kd [8] | Kd [9] | Kd [10] | Kd [11] | Compound | Kd [2]
5 | > 30 µM (inactive) | > 30 µM (inactive) | > 30 µM (inactive) | > 30 µM (inactive) | > 30 µM (inactive) | > 30 µM (inactive) | > 30 µM (inactive) | > 30 µM (inactive) | > 30 µM (inactive) | > 30 µM (inactive) | > 30 µM (inactive) | CCn1c(=O)c(-c2cc[nH]n2)cc2c(C)nc(N)nc21 [VOXTALISIB] | > 30 µM (inactive)
6 | > 30 µM (inactive) | > 30 µM (inactive) | > 30 µM (inactive) | > 30 µM (inactive) | > 30 µM (inactive) | > 30 µM (inactive) | > 30 µM (inactive) | > 30 µM (inactive) | > 30 µM (inactive) | > 30 µM (inactive) | > 30 µM (inactive) | CN(C)C(=O)c1cc2cnc(Nc3ccc(N4CCNCC4)cn3)nc2n1C1CCCC1 [RIBOCICLIB] | > 30 µM (inactive)
